Reference: patent publication US20180148418A1, “AMIDO-SUBSTITUTED CYCLOHEXANE DERIVATIVES” (Bayer Pharma Aktiengesellschaft, priority 2015, published 2018)
pIC50: −log10 of the molar value.

What was measured:
[1] = system: HEK293 cells cotransfected with the FOP control vector; test: HEK293 FOP assay (control reporter with non-functional TCF elements); assay type: cell-based; conditions: Homo sapiens, 16 hours
Procedure, shortened: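 Stable HEK293 line carrying FOP control reporter (randomized non-functional TCF sites, with pcDNA3), Geneticin-selected, plated 24 h before assay. Stimulated with recombinant human Wnt-3a (2500-5 ng/ml) and compounds 50 μM–15 nM (3.16-fold steps) in CAFTY buffer pH 7.4 with 2 mM Ca2+, 0.01% BSA, run parallel to TOP line.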

TNKS1 = molecular target: T1, TNKS1 (Homo sapiens, UniProt O95271); test: TNKS1 Assay B (auto-parsylation, [3H]-NAD+ SPA); assay type: biochemical; conditions: 6 nM TNKS1, auto-parsylation, over night at room temperature
T1 construct: purchased BPS Bioscience, San Diego, USA 80579 (TNKS1 Histone Ribosylation Assay Kit)
T1 sequence (O95271 1-1327): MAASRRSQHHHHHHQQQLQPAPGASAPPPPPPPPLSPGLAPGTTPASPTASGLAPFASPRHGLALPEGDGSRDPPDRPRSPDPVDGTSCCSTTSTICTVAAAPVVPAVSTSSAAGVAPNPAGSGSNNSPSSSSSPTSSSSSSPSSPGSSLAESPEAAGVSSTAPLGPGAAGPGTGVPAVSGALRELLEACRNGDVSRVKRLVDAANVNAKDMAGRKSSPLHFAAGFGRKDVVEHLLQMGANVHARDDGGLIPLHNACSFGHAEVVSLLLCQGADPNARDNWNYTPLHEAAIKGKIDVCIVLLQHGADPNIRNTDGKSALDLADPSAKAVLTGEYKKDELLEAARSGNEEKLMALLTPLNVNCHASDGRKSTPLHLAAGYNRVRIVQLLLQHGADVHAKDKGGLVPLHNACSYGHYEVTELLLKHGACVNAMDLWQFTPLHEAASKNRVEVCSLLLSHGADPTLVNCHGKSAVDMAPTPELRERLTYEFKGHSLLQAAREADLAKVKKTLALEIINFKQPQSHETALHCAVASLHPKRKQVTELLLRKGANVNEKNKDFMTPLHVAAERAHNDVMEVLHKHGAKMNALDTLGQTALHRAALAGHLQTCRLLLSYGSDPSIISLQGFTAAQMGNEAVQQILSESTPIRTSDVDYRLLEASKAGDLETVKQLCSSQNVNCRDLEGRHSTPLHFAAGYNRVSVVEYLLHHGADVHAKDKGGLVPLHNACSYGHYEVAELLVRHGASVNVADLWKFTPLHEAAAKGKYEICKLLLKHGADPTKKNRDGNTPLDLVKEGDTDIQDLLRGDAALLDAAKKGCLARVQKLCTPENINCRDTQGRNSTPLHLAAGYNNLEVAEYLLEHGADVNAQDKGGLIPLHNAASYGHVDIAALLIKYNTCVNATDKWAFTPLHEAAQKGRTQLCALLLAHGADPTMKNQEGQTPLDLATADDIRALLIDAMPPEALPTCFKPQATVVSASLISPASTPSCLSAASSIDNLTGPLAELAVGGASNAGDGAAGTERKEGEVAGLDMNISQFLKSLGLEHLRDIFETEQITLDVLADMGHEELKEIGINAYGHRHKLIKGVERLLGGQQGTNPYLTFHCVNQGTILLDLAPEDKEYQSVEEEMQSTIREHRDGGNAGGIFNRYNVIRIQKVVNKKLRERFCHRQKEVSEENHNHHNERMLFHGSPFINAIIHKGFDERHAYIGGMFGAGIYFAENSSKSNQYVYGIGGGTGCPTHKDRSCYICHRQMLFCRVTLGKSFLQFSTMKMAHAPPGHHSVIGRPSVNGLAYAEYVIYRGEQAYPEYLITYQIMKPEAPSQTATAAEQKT

Row | Compound | pIC50 [1] | pIC50 (TNKS1)
1 | CNC(=O)c1nc[nH]c1C(=O)N[C@H]1CC[C@@]2(CCN(c3cc(C)c(F)cc3Cl)C2=O)CC1 [Example 288, N^5-[(trans)-2-(2-chloro-4-fluoro-5-methylphenyl)-1-oxo-2-azaspiro[4.5]dec-8-yl]-N^4-methyl-1H-imidazole-4,5-dicarboxamide] | 4.70 | 8.17
2 | CCNC(=O)c1nc[nH]c1C(=O)N[C@H]1CC[C@@]2(CCN(c3cc(C)c(F)cc3Cl)C2=O)CC1 [Example 289, N^5-[(trans)-2-(2-chloro-4-fluoro-5-methylphenyl)-1-oxo-2-azaspiro[4.5]dec-8-yl]-N^4-ethyl-1H-imidazole-4,5-dicarboxamide] | 4.80 | 8.06
3 | Cc1cc(N2CC[C@]3(CC[C@@H](NC(=O)c4[nH]cnc4C(=O)NCCN4CCC(C)CC4)CC3)C2=O)c(Cl)cc1F [Example 290, N^5-[(trans)-2-(2-chloro-4-fluoro-5-methylphenyl)-1-oxo-2-azaspiro[4.5]dec-8-yl]-N^4-[2-(4-methylpiperidin-1-yl)ethyl]-1H-imidazole-4,5-dicarboxamide] | 4.80 | 8.21
4 | Cc1cc(N2CC[C@]3(CC[C@@H](NC(=O)c4[nH]cnc4C(=O)NCC(F)(F)F)CC3)C2=O)c(Cl)cc1F [Example 297, N^5-[(trans)-2-(2-chloro-4-fluoro-5-methylphenyl)-1-oxo-2-azaspiro[4.5]dec-8-yl]-N^4-(2,2,2-trifluoroethyl)-1H-imidazole-4,5-dicarboxamide] | 5.03 | 8.00
5 | O=C(N[C@H]1CC[C@@]2(CCN(c3cc(F)c(F)cc3Cl)C2=O)CC1)c1cnc2cccnn12 [Example 298, N-[(trans)-2-(2-chloro-4,5-difluorophenyl)-1-oxo-2-azaspiro[4.5]dec-8-yl]imidazo[1,2-b]pyridazine-3-carboxamide] | ≤ 4.30 | 8.21
6 | Cc1cc(C)n2ncc(C(=O)N[C@H]3CC[C@@]4(CCN(c5cc(F)c(F)cc5Cl)C4=O)CC3)c2n1 [Example 299, N-[(trans)-2-(2-chloro-4,5-difluorophenyl)-1-oxo-2-azaspiro[4.5]dec-8-yl]-5,7-dimethylpyrazolo[1,5-a]pyrimidine-3-carboxamide] | ≤ 4.30 | 8.15
7 | Cc1cc(N2CCC[C@]3(CC[C@@H](NC(=O)c4cnn5cccnc45)CC3)C2=O)c(Cl)cc1F [Example 300, N-[(trans)-2-(2-chloro-4-fluoro-5-methylphenyl)-1-oxo-2-azaspiro[5.5]undec-9-yl]pyrazolo[1,5-a]pyrimidine-3-carboxamide] | ≤ 6.30 | 7.03
8 | Cc1cc(N2CCC[C@]3(CC[C@@H](NC(=O)c4cnc5cccnn45)CC3)C2=O)c(Cl)cc1F [Example 301, N-[(trans)-2-(2-chloro-4-fluoro-5-methylphenyl)-1-oxo-2-azaspiro[5.5]undec-9-yl]imidazo[1,2-b]pyridazine-3-carboxamide] | ≤ 6.30 | 6.89
9 | Cc1cc(C)n2ncc(C(=O)N[C@H]3CC[C@@]4(CCCN(c5cc(C)c(F)cc5Cl)C4=O)CC3)c2n1 [Example 302, N-[(trans)-2-(2-chloro-4-fluoro-5-methylphenyl)-1-oxo-2-azaspiro[5.5]undec-9-yl]-5,7-dimethylpyrazolo[1,5-a]pyrimidine-3-carboxamide] | ≤ 6.30 | 6.77
10 | COCCNC(=O)c1nc[nH]c1C(=O)N[C@H]1CC[C@@]2(CCN(c3cc(C)c(F)cc3Cl)C2=O)CC1 [Example 334, N^5-[(trans)-2-(2-chloro-4-fluoro-5-methylphenyl)-1-oxo-2-azaspiro[4.5]dec-8-yl]-N^4-(2-methoxyethyl)-1H-imidazole-4,5-dicarboxamide] | ≤ 4.30 | 7.92
11 | COC(=O)c1cc(C)nc2c(C(=O)N[C@H]3CC[C@H](C(=O)Nc4c(F)cc(F)cc4Cl)CC3)cnn12 [Example 351, methyl 3-({trans-4-[(2-chloro-4,6-difluorophenyl)carbamoyl]cyclohexyl}carbamoyl)-5-methylpyrazolo[1,5-a]pyrimidine-7-carboxylate] | ≤ 4.30 | 6.82
12 | COC(=O)c1cc(C)nc2c(C(=O)N[C@H]3CC[C@H](C(=O)Nc4ccc(F)cc4Cl)CC3)cnn12 [Example 352, methyl 3-({trans-4-[(2-chloro-4-fluorophenyl)carbamoyl]cyclohexyl}carbamoyl)-5-methylpyrazolo[1,5-a]pyrimidine-7-carboxylate] | ≤ 4.30 | 6.46
13 | Cc1c(C(C)(C)O)cnc2c(C(=O)N[C@H]3CC[C@H](C(=O)Nc4ccc(F)cc4Cl)CC3)cnn12 [Example 359, N-{trans-4-[(2-chloro-4-fluorophenyl)carbamoyl]cyclohexyl}-6-(2-hydroxypropan-2-yl)-7-methylpyrazolo[1,5-a]pyrimidine-3-carboxamide] | ≤ 4.30 | < 5.00
14 | O=C(N[C@H]1CC[C@H](C(=O)Nc2ccc(F)cc2Cl)CC1)c1cnc2ccc(O)nn12 [Example 360, N-{trans-4-[(2-chloro-4-fluorophenyl)carbamoyl]cyclohexyl}-6-hydroxyimidazo[1,2-b]pyridazine-3-carboxamide] | ≤ 4.30 | 5.60
15 | Cc1nc2c(C(=O)N[C@H]3CC[C@H](C(=O)Nc4c(F)cc(F)cc4Cl)CC3)cnn2c2c1CCC2 [Example 363, N-{trans-4-[(2-chloro-4,6-difluorophenyl)carbamoyl]cyclohexyl}-5-methyl-7,8-dihydro-6H-cyclopenta[e]pyrazolo[1,5-a]pyrimidine-3-carboxamide] | ≤ 4.30 | 7.24
